From patent US20180153826A1, “MATERIALS AND METHODS FOR THE TREATMENT OF CYSTIC FIBROSIS” (UNIVERSITY OF FLORIDA RESEARCH FOUNDATION, INC., priority 2015, published 2018)

Assays:
[1] = tested on: CFTR-mediated and non CFTR-mediated HCO3^− secretion; assay: Isc and pH stat HCO3^− secretion with/without lumen Cl^−, CFTR inhibitors or DIDS (FIGS. 5, 6)
Excerpt: FIG. 3. Experimental approach 1: The Ussing chamber pH-stat set up used to monitor and measure HCO3^- secretion by colonic mucosa. FIG. 4. Experimental Approach 2: Measurement of HCO3^- secretion by colonic mucosa in the presence of apical NPPB/Glibenclamide. FIGS. 5A-5F. Activation of CaSR by […] inhibits CFTR-mediated HCO3^- secretion (JHCO3) and ISC but stimulates non CFTR-mediated HCO3^- secretion (JHCO3) and Isc. Physiological approach assayed with, versus without, lumen Cl^-. FIGS. 6A-6F. Activation of CaSR by […] inhibits CFTR-mediated HCO3^- secretion (JHCO3) and ISC but stimulates CFTR-independent HCO3^- secretion (JHCO3) and Isc. Pharmacological approach assayed with, and without, CFTR transporter inhibitors or AE inhibitor DIDS.

SCFA/HCO3^− exchange = SCFA/HCO3^− exchange activity (isobutyrate-dependent HCO3^− secretion); set-up: species or system rat; conditions: 10 μM serosa; 25 mM isobutyrate lumen
Experimental: (§1) Stripped mucosal sheets were mounted into Ussing chambers (window area=0.3-0.5 cm^2, Physiologic Instruments, San Diego, Calif.). The mucosal side of tissue was bathed with an unbuffered HCO3^−-free Cl^− Ringer solution (see Table 2 for detailed composition) circulated by a gas lift with 100% O2 while the serosal side was bathed with buffered Cl^− Ringer solution (pH 7.4) that contained 25 mM HCO3^− and gassed with 5% CO2/95% O2. Each side contained 3-5 ml of solution and the temperature of the solution was adjusted to and maintained at 37° C. by heated water-jacketed reservoirs. […]
(§2) Two types of approaches were used in the measurement of colonic HCO3^− secretion, namely, measurement of lumen pH or pH stat titration of net alkalinization by colonic mucosa. […] The amount of the acid delivered per unit time per surface area was used to quantitate HCO3^− secretion by the mucosa. Measurements were recorded continuously and mean values for consecutive 5 or 10 min periods were averaged. The rate of HCO3^− secretion (JHCO3) is expressed as μEq/hr/cm^2. The short-circuit current (Isc) was measured in microamperes (μA) and converted into μEq/hr/cm^2. Tissue resistance (R, Ω cm^2) was calculated from Ohm's law.
SCFA/HCO3^− exchange activity was calculated as ΔJHCO3 (the difference between JHCO3 in the presence minus absence of luminal isobutyrate).

[2] = tested on: colon mucosa of CaSR null mice; assay: HCO3^− secretion in colon mucosa of CaSR null (CaSR^−/−) mice; set-up: species or system mouse
Experimental: FIGS. 13A-13F. […] Colonic mucosa from wild type (CaSR^+/+) (A-C) and knockout (CaSR^-/-) mice (D-F) were isolated and treated, and activities of the three HCO3^- transporters assayed as in rats. Data are means±SEM of 4-6 experiments. *p<0.05 vs. control (1st bar). Experiments were performed using non-fasting male Sprague-Dawley rats and C57BL/6 mice. Rats weighting 100-400 g were obtained from Charles River Laboratories. Mice lacking CaSR expression in intestinal epithelial cells (CaSR^-/-) and their CaSR^+/+ littermates were bred and maintained. CaSR^-/- mice were generated as previously described. Briefly, CaSR flox/flox mice were bred with transgenic mice expressing Cre Recombinase under the control of the villin 1 promoter and genotyped prior to all experiments after an approximate 10-12 generations. Mice were used at 5-10 weeks of age. Animals were fed and maintained on regular chow (Harlan) with free access to water before sacrifice. Animals were sacrificed with standard CO2 inhalation followed by cervical dislocation. The colons were isolated, cut open along the mesenteric border into a flat sheet, and flushed with ice-cold Ringer solutions. Mucosa from the distal colon were carefully hand-stripped off of serosal, muscular and submucosal layers as described and a pair of adjacent mucosal segments were incised and mounted into Ussing chambers. […]

[3] = tested on: HCO3^− secretion by colonic mucosa; assay: Secretagogue (forskolin)-induced HCO3^− secretion, lumen Cl^−-containing Ringer; set-up: species or system rat; conditions: 10 μM serosa, added after forskolin 500 nM
Experimental: as §1
as §2, with “law. […]” for “law.”

[4] = tested on: HCO3^− secretion by colonic mucosa; assay: Acid-induced HCO3^− secretion (lumen pH recovery); set-up: species or system rat; conditions: 10 μM, serosa
Experimental: as §1
as §2, with “law. […]” for “law.”

Q: With COc1cccc([C@@H](C)NCCCc2ccccc2Cl)c1.Cl [R568, 2-Chloro-N-[(1R)-1-(3-methoxyphenyl)ethyl]-benzenepropanamine hydrochloride] as the compound, how does the “HCO3^− secretion (pH stat)” value ([1]; absence of lumen Cl^−) read?
A: Its value is “net inhibition”.

Q: And the “phase I Isc stimulation induced by R568” value ([1]; absence of lumen Cl^−)?
A: The value was “abolished”.

Q: And the “phase II Isc inhibition” value ([1]; absence of lumen Cl^−)?
A: The value was “remained unchanged or slightly reduced”.

Q: And the “HCO3^− secretion (pH stat)” value ([1]; presence of lumen Cl^−)?
A: Its value is “net stimulation”.

Q: And the Isc response ([1]; presence of lumen Cl^−)?
A: The Isc response was “two-phase response”.

Q: What about the “isobutyrate-dependent HCO3^− secretion” value (SCFA/HCO3^− exchange) of the same compound?
A: The value was “significantly stimulated”.

Q: What about the “R568 effects on Cl^−-, SCFA- and cAMP-dependent HCO3^− secretion” value [2] of the same compound?
A: The value was “abolished”.

Q: What about the “effect on forskolin-induced HCO3^− secretion” value [3] of the same compound?
A: Its value is “did not increase but rather decreased”.

Q: And the “acid-induced HCO3^− secretion (pH recovery rate)” value [4]?
A: The value was “transient but significant stimulation”.
